Measurements reported in doi:10.1101/2023.11.24.568596v1 (biorxiv, 2023).
One block for each compound: values may come before it.

Columns and labels:
Conditions in all cases: binder
BIKE = BIKE (Homo sapiens, UniProt Q9NSY1)
MYT1 = target: T1, MYT1 (Homo sapiens, UniProt Q99640)
T1 sequence (Q99640 1-499): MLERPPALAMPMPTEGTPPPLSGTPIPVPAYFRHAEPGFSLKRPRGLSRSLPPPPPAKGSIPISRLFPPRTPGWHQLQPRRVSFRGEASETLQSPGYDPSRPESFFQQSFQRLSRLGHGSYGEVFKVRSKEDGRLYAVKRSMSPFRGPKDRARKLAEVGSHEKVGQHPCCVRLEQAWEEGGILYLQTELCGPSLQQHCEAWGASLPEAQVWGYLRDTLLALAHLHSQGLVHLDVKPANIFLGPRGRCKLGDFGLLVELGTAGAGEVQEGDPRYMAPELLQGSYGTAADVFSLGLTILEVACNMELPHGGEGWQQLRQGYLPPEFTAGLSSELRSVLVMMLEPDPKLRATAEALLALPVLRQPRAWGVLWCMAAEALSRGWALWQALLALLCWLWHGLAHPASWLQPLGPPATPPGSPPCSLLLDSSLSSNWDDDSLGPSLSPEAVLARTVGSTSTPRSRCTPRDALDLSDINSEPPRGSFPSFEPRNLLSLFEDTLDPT

MSSK1 = MSSK1 (Homo sapiens, UniProt Q9UPE1)
MAP3K5 = target: T2, MAP3K5 (Homo sapiens, UniProt Q99683)
T2 sequence (Q99683 1-1374): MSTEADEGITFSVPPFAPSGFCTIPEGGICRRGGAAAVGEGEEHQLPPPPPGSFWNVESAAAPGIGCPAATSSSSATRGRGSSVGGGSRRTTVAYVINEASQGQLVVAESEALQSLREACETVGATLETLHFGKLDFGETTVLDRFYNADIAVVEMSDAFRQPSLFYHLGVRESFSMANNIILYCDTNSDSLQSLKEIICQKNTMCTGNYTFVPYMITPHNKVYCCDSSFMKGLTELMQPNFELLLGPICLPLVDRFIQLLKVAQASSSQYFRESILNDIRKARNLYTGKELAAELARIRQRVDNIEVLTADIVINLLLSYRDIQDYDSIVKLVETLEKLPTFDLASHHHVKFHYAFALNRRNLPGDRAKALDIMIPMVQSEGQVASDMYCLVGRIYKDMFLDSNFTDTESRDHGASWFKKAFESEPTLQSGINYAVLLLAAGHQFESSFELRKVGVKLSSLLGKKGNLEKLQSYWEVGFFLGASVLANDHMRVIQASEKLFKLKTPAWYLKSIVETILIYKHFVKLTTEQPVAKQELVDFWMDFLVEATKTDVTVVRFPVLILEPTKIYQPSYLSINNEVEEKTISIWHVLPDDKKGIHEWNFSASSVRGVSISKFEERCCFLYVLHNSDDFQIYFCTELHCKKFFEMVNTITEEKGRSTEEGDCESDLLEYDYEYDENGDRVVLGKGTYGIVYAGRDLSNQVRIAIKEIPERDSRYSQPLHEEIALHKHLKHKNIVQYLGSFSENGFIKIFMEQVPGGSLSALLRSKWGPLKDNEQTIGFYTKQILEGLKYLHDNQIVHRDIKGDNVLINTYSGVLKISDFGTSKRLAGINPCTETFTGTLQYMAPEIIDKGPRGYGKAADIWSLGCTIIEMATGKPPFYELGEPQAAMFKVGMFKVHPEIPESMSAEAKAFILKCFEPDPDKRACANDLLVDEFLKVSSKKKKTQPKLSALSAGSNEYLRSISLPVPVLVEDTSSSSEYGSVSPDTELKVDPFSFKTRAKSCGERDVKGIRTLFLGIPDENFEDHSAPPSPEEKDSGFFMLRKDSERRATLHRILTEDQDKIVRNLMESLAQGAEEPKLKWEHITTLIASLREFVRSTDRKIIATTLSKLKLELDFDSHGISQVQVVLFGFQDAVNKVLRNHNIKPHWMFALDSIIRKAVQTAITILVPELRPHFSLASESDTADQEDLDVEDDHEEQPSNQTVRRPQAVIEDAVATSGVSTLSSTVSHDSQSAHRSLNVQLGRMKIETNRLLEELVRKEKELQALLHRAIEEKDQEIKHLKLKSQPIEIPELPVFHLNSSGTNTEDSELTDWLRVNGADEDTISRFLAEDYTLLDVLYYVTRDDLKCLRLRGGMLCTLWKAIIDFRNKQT

MSK1b = MSK1b (Homo sapiens, UniProt O75582)
CK1d = CK1d (Homo sapiens, UniProt P48730)
Chain of CK1d (P48730 whole entry): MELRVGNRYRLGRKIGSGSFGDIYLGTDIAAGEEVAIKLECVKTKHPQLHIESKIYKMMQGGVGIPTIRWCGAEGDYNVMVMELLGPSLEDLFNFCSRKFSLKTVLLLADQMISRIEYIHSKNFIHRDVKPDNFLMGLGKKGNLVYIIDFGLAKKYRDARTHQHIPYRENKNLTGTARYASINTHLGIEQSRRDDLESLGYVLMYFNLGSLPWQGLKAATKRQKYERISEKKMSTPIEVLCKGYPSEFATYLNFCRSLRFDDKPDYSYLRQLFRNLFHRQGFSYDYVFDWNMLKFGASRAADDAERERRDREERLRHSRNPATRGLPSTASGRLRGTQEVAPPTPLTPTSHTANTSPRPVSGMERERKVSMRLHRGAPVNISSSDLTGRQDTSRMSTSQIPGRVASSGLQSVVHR

Chain of MSK1b (O75582 whole entry): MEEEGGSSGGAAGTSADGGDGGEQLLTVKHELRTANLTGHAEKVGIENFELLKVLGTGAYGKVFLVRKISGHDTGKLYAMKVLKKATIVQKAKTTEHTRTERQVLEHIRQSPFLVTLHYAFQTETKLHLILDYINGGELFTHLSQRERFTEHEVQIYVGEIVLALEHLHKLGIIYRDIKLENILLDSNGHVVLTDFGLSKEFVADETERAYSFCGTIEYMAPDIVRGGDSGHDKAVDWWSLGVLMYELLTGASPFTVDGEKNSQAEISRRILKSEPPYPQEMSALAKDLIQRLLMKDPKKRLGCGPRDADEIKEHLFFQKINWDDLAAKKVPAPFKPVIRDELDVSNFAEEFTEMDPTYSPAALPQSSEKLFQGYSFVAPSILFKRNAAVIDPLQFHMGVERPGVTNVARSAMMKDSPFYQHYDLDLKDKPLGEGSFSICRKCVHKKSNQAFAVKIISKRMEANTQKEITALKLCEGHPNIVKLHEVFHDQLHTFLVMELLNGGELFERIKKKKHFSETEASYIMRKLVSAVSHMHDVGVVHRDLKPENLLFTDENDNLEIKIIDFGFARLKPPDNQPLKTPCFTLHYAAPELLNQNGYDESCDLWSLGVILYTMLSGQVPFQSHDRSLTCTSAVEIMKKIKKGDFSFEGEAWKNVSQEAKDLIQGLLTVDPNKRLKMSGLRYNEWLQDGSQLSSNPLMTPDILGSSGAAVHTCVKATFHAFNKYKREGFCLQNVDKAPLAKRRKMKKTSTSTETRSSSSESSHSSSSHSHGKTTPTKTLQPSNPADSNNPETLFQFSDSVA
Chain of BIKE (Q9NSY1 whole entry): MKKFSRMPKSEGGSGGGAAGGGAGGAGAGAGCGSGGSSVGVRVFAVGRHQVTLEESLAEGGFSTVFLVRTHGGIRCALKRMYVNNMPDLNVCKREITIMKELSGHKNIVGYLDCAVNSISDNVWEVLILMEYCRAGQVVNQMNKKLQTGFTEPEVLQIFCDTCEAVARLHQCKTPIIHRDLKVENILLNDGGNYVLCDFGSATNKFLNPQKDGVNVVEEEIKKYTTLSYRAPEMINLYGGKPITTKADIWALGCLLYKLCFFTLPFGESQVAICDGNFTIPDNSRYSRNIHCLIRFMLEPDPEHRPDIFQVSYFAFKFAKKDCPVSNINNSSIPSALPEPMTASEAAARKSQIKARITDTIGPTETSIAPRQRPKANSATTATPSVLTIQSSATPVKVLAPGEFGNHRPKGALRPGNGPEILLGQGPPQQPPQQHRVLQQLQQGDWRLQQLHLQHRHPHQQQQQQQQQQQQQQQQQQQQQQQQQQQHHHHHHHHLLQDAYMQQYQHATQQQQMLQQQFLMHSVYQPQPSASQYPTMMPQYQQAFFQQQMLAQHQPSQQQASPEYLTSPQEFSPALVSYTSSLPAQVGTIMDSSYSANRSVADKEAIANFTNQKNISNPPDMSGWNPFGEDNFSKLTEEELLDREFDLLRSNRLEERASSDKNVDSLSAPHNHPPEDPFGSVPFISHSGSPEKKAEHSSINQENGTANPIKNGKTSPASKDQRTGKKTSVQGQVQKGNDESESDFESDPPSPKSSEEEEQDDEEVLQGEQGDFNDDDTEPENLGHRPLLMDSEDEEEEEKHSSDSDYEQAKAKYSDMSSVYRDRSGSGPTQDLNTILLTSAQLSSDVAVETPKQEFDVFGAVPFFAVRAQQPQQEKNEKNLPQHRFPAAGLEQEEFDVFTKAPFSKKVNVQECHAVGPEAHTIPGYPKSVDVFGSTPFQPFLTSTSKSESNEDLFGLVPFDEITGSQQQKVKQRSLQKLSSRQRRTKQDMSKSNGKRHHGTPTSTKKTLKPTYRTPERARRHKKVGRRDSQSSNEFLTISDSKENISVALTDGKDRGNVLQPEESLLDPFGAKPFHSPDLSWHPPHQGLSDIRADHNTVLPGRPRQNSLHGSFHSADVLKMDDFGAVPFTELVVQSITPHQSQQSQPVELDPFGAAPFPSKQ
Chain of MSSK1 (Q9UPE1 whole entry): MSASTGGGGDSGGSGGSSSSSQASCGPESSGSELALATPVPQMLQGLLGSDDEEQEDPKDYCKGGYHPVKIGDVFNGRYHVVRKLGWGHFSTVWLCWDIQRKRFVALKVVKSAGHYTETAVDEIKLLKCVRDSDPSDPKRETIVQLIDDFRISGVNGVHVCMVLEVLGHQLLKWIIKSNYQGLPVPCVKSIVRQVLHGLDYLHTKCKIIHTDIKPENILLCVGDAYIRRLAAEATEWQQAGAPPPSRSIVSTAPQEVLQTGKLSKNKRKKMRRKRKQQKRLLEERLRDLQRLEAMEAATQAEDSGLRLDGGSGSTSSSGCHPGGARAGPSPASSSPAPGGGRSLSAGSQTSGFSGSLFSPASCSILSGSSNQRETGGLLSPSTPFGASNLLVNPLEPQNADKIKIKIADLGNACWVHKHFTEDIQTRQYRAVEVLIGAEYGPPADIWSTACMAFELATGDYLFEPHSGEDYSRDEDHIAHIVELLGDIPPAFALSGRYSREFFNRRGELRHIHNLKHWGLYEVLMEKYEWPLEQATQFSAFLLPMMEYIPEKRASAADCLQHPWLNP

ΔTm 30 (BIKE): 6.4 °C | ΔTm 30 (MYT1): -2.8 °C | ΔTm 30 (MSSK1): -0.2 °C | ΔTm 30 (MAP3K5): 13.1 °C | ΔTm 30 (MSK1b): 3.6 °C | ΔTm 30 (CK1d): 2.8 °C
Structure (SMILES): Cc1cccc(-c2ccc(-c3cc4cnc(Nc5ccc(CCCO)cc5)nc4n(CCCCN)c3=O)c(Cl)c2)n1 [compound 30, 8-(4-Aminobutyl)-6-(2-chloro-4-(6-methylpyridin-2-yl)phenyl)-2-((4-(3-hydroxypropyl)phenyl)amino)pyrido[2,3-d]pyrimidin-7(8H)-one]

ΔTm 31 (BIKE): 6.5 °C | ΔTm 31 (MYT1): -2.3 °C | ΔTm 31 (MSSK1): 0.0 °C | ΔTm 31 (MAP3K5): 12.3 °C | ΔTm 31 (MSK1b): 4.3 °C | ΔTm 31 (CK1d): 2.8 °C
Structure (SMILES): Cc1cccc(-c2ccc(-c3cc4cnc(Nc5ccc(O)cc5)nc4n(CCCCN)c3=O)c(Cl)c2)n1 [compound 31, 8-(4-Aminobutyl)-6-(2-chloro-4-(6-methylpyridin-2-yl)phenyl)-2-((4-hydroxyphenyl)amino) pyrido[2,3-d]pyrimidin-7(8H)-one]

ΔTm 32 (BIKE): 6.6 °C | ΔTm 32 (MYT1): -2.6 °C | ΔTm 32 (MSSK1): -0.2 °C | ΔTm 32 (MAP3K5): 12.7 °C | ΔTm 32 (MSK1b): 4.6 °C | ΔTm 32 (CK1d): 2.3 °C
Structure (SMILES): Cc1cccc(-c2ccc(-c3cc4cnc(Nc5ccc(C)c(O)c5)nc4n(CCCCN)c3=O)c(Cl)c2)n1 [compound 32, 8-(4-Aminobutyl)-6-(2-chloro-4-(6-methylpyridin-2-yl)phenyl)-2-((3-hydroxy-4-methylphenyl)amino)pyrido[2,3-d]pyrimidin-7(8H)-one]

Further lines, the compound ahead of its results:

Structure (SMILES): Cc1cccc(-c2ccc(-c3cc4cnc(NCCCN5CCCC5=O)nc4n(CCCCN)c3=O)c(Cl)c2)n1 [compound 27, MR30]
ΔTm MR30 (27) (BIKE): 0.4 °C | ΔTm MR30 (27) (MYT1): -2.8 °C | ΔTm MR30 (27) (MSSK1): -0.4 °C | ΔTm MR30 (27) (MAP3K5): 9.2 °C | ΔTm MR30 (27) (MSK1b): -1.4 °C | ΔTm MR30 (27) (CK1d): 1.6 °C

Structure (SMILES): Cc1cccc(-c2ccc(-c3cc4cnc(Nc5cc(C(F)(F)F)ccc5C)nc4n(CCCCN)c3=O)c(Cl)c2)n1 [compound 28, 8-(4-Aminobutyl)-6-(2-chloro-4-(6-methylpyridin-2-yl)phenyl)-2-((2-methyl-5-(trifluoromethyl)phenyl)amino)pyrido[2,3-d]pyrimidin-7(8H)-one]
ΔTm 28 (BIKE): 0.3 °C | ΔTm 28 (MYT1): -4.3 °C | ΔTm 28 (MSSK1): -0.9 °C | ΔTm 28 (MAP3K5): 12.2 °C | ΔTm 28 (MSK1b): 1.4 °C | ΔTm 28 (CK1d): 1.4 °C

Structure (SMILES): Cc1cccc(-c2ccc(-c3cc4cnc(NCCCN5CCNCC5)nc4n(CCCCN)c3=O)c(Cl)c2)n1 [compound 29, 8-(4-Aminobutyl)-6-(2-chloro-4-(6-methylpyridin-2-yl)phenyl)-2-((3-(piperazin-1-yl)propyl)amino)pyrido[2,3-d]pyrimidin-7(8H)-one]
ΔTm 29 (BIKE): 0.7 °C | ΔTm 29 (MYT1): -0.9 °C | ΔTm 29 (MSSK1): -0.3 °C | ΔTm 29 (MAP3K5): 9.6 °C | ΔTm 29 (MSK1b): 0.2 °C | ΔTm 29 (CK1d): 1.3 °C
